{"source": "ChEMBL document CHEMBL4507291", "about": "(2021)", "key": {"[1]": {"molecular_target": "Casein kinase I isoform gamma-3 (Homo sapiens) (UniProt Q9Y6M4)"}, "[2]": {"molecular_target": "T1, Beta-adrenergic receptor kinase 1 (Homo sapiens) (UniProt P25098)", "T1 sequence (whole entry)": "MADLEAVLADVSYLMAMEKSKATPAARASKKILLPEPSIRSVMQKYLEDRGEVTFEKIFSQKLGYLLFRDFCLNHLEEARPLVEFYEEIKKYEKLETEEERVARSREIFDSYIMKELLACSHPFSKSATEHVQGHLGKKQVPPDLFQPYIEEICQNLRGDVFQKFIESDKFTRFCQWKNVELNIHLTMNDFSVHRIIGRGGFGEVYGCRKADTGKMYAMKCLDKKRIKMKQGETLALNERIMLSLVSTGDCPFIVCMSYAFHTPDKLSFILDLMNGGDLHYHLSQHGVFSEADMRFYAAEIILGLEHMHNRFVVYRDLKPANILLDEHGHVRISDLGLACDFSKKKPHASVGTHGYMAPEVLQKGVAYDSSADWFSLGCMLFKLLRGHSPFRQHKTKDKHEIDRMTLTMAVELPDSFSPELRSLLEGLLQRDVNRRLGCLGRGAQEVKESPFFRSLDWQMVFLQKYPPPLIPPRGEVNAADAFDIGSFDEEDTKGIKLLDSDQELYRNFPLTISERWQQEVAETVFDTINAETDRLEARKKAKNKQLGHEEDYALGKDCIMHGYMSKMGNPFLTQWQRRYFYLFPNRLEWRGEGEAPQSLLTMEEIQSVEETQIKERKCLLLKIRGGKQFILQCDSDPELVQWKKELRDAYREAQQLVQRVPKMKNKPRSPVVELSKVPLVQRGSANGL"}, "[3]": {"molecular_target": "T2, MAP kinase-activated protein kinase 5 (Homo sapiens) (UniProt Q8IW41)", "T2 sequence (whole entry)": "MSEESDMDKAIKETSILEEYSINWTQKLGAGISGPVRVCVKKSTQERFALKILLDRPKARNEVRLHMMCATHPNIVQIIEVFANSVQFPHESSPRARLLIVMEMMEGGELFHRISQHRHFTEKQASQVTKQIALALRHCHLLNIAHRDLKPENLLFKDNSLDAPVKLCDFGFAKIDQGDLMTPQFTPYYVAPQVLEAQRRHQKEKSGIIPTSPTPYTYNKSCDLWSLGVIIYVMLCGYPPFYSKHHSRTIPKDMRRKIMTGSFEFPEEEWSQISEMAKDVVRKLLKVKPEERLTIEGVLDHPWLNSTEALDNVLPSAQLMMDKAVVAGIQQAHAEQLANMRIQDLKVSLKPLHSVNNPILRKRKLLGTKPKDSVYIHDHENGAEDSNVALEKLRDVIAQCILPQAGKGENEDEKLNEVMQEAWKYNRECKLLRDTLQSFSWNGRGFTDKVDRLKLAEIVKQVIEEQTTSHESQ"}, "[4]": {"molecular_target": "Myosin light chain kinase 2, skeletal/cardiac muscle (Homo sapiens) (UniProt Q9H1R3)"}, "[5]": {"system": "Mast/stem cell growth factor receptor Kit (Homo sapiens), P10721 [V559D]", "sequence (P10721 whole entry V559D)": "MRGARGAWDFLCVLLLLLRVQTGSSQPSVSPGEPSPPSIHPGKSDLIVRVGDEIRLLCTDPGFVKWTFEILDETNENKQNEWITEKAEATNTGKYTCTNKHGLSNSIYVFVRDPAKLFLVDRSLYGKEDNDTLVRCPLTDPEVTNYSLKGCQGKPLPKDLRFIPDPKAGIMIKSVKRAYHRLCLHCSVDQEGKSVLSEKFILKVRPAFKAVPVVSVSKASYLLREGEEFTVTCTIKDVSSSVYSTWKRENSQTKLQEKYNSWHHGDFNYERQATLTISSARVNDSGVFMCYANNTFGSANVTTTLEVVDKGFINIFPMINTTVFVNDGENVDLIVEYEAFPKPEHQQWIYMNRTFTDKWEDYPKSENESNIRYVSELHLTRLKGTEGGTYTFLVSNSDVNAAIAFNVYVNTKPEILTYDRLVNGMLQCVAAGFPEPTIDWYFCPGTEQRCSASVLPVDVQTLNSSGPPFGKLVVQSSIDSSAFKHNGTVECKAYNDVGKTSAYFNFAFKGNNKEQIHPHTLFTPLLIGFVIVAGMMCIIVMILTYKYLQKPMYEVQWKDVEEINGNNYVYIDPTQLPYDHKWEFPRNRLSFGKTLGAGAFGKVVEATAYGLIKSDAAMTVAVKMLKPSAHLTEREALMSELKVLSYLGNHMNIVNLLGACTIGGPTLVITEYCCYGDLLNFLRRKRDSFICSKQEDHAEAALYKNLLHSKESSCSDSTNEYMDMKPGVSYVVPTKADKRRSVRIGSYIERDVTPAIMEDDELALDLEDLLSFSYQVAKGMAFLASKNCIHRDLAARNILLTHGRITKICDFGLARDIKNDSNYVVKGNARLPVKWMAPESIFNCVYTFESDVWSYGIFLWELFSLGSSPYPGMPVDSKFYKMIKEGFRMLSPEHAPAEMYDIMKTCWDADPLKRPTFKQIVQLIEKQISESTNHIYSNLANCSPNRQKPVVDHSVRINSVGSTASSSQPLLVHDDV"}, "[6]": {"molecular_target": "Serine/threonine-protein kinase 36 (Homo sapiens) (UniProt Q9NRP7)"}, "[7]": {"molecular_target": "Mitogen-activated protein kinase kinase kinase kinase 4 (Homo sapiens) (UniProt O95819)"}, "[8]": {"molecular_target": "Mitogen-activated protein kinase kinase kinase kinase 3 (Homo sapiens) (UniProt Q8IVH8)", "sequence (Q8IVH8 whole entry)": "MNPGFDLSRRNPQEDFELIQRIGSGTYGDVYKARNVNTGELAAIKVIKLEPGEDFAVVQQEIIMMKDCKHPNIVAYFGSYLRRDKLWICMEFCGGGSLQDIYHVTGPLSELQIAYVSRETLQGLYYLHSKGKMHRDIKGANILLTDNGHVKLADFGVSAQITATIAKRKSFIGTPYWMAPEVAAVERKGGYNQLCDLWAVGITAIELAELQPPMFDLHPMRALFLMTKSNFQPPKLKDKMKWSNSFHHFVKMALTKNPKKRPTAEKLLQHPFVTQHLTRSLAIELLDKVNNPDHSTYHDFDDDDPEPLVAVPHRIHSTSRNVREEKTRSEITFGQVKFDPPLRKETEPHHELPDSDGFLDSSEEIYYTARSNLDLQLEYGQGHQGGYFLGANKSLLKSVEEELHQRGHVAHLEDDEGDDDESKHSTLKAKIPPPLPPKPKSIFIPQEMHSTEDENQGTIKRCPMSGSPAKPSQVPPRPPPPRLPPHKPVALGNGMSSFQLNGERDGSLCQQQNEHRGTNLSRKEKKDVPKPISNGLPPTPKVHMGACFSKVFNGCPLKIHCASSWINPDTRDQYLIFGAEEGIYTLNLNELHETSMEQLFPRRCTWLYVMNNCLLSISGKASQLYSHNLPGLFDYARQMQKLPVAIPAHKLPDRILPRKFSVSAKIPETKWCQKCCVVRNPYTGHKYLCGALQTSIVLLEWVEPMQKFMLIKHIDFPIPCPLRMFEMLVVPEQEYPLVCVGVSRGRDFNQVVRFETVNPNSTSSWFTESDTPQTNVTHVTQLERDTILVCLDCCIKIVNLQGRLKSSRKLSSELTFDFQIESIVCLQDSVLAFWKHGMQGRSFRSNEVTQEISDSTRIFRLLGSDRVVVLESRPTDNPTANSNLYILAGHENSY"}, "[9]": {"molecular_target": "BDNF/NT-3 growth factors receptor (Homo sapiens) (UniProt Q16620)"}, "[10]": {"molecular_target": "Serine/threonine-protein kinase SBK1 (Homo sapiens) (UniProt Q52WX2)", "sequence (Q52WX2 whole entry)": "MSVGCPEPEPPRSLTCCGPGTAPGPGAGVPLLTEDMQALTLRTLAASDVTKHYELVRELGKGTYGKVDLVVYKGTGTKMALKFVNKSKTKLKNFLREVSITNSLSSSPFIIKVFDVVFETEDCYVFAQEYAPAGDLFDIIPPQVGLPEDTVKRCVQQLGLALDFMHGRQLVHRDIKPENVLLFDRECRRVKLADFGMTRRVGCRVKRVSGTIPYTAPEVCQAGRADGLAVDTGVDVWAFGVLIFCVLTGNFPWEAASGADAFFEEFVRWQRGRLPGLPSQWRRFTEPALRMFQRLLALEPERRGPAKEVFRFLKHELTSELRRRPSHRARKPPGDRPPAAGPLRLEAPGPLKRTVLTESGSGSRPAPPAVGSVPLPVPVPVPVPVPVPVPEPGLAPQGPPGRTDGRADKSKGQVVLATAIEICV"}, "[11]": {"system": "Serine/threonine-protein kinase B-raf (Homo sapiens), P15056 [V600E]"}, "[12]": {"molecular_target": "D(3) dopamine receptor (Homo sapiens) (UniProt P35462)", "details": "Compound concentration 10.0 uM"}, "[13]": {"molecular_target": "Dual serine/threonine and tyrosine protein kinase (Homo sapiens) (UniProt Q6XUX3)", "sequence (Q6XUX3 whole entry)": "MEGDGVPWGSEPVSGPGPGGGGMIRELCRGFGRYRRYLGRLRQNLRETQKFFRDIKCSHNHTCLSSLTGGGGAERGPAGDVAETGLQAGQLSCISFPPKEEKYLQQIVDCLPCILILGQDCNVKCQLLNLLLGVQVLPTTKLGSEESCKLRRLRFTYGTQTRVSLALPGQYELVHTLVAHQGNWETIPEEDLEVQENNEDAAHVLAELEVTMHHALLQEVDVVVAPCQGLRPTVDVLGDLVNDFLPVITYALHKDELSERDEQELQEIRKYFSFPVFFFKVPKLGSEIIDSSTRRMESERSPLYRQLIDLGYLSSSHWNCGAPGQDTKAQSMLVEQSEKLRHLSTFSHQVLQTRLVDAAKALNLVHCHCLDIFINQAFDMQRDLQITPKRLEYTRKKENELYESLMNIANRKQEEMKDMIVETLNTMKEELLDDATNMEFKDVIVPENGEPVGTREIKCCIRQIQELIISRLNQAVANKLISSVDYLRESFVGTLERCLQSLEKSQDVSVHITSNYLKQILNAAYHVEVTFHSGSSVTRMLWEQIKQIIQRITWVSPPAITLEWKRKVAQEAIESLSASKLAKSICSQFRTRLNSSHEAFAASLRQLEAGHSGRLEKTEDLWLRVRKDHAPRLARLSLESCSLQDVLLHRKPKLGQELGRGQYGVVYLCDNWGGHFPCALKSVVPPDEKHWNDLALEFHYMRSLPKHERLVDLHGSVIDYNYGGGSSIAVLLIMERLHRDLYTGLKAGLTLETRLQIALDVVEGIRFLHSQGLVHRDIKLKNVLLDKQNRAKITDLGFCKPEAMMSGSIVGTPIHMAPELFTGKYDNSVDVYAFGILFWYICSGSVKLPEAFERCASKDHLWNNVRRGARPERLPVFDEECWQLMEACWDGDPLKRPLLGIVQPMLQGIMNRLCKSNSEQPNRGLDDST"}, "[14]": {"molecular_target": "Mitogen-activated protein kinase kinase kinase 13 (Homo sapiens) (UniProt O43283)"}, "[15]": {"molecular_target": "Serine/threonine-protein kinase 32B (Homo sapiens) (UniProt Q9NY57)"}, "[16]": {"molecular_target": "Ribosomal protein S6 kinase alpha-2 (Homo sapiens) (UniProt Q15349)"}, "[17]": {"molecular_target": "Microtubule-associated serine/threonine-protein kinase 1 (Homo sapiens) (UniProt Q9Y2H9)", "sequence (Q9Y2H9 whole entry, looked up)": "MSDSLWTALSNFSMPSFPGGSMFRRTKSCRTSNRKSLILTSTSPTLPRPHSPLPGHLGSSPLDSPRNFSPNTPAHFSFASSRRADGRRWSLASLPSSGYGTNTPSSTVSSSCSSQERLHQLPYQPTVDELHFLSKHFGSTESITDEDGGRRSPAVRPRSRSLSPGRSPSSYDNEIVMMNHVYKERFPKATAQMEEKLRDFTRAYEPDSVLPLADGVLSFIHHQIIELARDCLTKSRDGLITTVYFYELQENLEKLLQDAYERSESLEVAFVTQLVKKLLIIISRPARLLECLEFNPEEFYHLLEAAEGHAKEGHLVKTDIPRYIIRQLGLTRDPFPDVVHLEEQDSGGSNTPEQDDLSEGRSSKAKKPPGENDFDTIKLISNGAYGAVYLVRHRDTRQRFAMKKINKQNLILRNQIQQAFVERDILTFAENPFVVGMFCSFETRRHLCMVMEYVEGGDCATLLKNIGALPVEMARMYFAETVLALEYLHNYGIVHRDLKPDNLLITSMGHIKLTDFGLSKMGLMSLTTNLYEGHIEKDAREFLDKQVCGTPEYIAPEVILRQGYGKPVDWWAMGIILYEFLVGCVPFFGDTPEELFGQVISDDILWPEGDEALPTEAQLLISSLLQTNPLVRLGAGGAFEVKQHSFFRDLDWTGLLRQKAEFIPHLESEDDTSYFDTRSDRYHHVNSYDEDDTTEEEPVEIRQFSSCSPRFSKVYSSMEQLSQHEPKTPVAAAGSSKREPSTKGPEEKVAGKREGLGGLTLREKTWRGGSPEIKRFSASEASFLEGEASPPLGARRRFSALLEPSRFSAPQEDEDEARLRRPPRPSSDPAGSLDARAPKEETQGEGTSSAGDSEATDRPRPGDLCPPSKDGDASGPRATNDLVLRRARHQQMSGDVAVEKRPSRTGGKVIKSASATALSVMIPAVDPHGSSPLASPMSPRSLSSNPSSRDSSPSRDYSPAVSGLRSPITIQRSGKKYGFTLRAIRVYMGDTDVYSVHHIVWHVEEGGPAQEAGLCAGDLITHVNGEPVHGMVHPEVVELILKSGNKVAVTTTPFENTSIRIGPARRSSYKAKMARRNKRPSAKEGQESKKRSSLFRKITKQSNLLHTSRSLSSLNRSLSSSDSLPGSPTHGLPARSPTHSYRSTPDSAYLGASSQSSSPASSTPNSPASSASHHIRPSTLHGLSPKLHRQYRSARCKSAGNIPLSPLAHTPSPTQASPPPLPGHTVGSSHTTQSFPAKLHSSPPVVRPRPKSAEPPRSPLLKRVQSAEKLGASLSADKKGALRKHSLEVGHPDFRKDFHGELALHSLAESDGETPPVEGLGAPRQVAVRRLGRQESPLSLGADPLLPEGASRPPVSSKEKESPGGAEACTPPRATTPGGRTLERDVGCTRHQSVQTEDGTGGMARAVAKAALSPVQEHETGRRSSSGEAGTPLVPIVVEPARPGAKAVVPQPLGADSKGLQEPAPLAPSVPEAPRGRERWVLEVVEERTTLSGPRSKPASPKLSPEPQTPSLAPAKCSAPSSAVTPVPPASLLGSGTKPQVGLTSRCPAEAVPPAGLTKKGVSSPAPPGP"}, "[18]": {"details": "Compound concentration 1000.0 nM"}, "[19]": {"details": "Compound concentration 100.0 nM"}}, "data": [{"smiles": "C[C@@H]1CN(c2cc(-c3nn(C)c4ccc(OC5(C)CC5)cc34)ncn2)C[C@H](C)O1", "note": "[MLi-2-NC]", "values": [{"measurement": "residual activity", "setting": "[1]; [18]", "value": 100, "unit": "%"}, {"measurement": "residual activity", "setting": "[2]; [18]", "value": 68, "unit": "%"}, {"measurement": "residual activity", "setting": "[3]; [18]", "value": 73, "unit": "%"}, {"measurement": "residual activity", "setting": "[4]; [18]", "value": 87, "unit": "%"}, {"measurement": "residual activity", "setting": "[5]; [18]", "value": 100, "unit": "%"}, {"measurement": "residual activity", "setting": "[6]; [18]", "value": 93, "unit": "%"}, {"measurement": "residual activity", "setting": "[7]; [18]", "value": 100, "unit": "%"}, {"measurement": "residual activity", "setting": "[8]; [18]", "value": 100, "unit": "%"}, {"measurement": "residual activity", "setting": "[9]; [18]", "value": 65, "unit": "%"}, {"measurement": "residual activity", "setting": "[10]; [18]", "value": 62, "unit": "%"}, {"measurement": "residual activity", "setting": "[11]; [18]", "value": 91, "unit": "%"}, {"measurement": "inhibition", "setting": "[12]", "value": 2.71, "unit": "%"}, {"measurement": "residual activity", "setting": "[13]; [18]", "value": 67, "unit": "%"}, {"measurement": "residual activity", "setting": "[14]; [18]", "value": 91, "unit": "%"}, {"measurement": "residual activity", "setting": "[15]; [18]", "value": 100, "unit": "%"}, {"measurement": "residual activity", "setting": "[16]; [18]", "value": 88, "unit": "%"}, {"measurement": "residual activity", "setting": "[17]; [18]", "value": 100, "unit": "%"}]}, {"smiles": "C[C@@H]1CN(c2cc(-c3n[nH]c4ccc(OC5(C)CC5)cc34)ncn2)C[C@H](C)O1", "note": "[MLi-2]", "values": [{"measurement": "residual activity", "setting": "[1]; [19]", "value": 95, "unit": "%"}, {"measurement": "residual activity", "setting": "[2]; [19]", "value": 86, "unit": "%"}, {"measurement": "residual activity", "setting": "[3]; [19]", "value": 93, "unit": "%"}, {"measurement": "residual activity", "setting": "[4]; [19]", "value": 91, "unit": "%"}, {"measurement": "residual activity", "setting": "[5]; [19]", "value": 100, "unit": "%"}, {"measurement": "residual activity", "setting": "[6]; [19]", "value": 86, "unit": "%"}, {"measurement": "residual activity", "setting": "[7]; [19]", "value": 98, "unit": "%"}, {"measurement": "residual activity", "setting": "[8]; [19]", "value": 88, "unit": "%"}, {"measurement": "residual activity", "setting": "[9]; [19]", "value": 67, "unit": "%"}, {"measurement": "residual activity", "setting": "[10]; [19]", "value": 88, "unit": "%"}, {"measurement": "residual activity", "setting": "[11]; [19]", "value": 89, "unit": "%"}, {"measurement": "inhibition", "setting": "[12]", "value": -0.66, "unit": "%"}, {"measurement": "residual activity", "setting": "[13]; [19]", "value": 77, "unit": "%"}, {"measurement": "residual activity", "setting": "[14]; [19]", "value": 0, "unit": "%"}, {"measurement": "residual activity", "setting": "[15]; [19]", "value": 92, "unit": "%"}, {"measurement": "residual activity", "setting": "[16]; [19]", "value": 92, "unit": "%"}, {"measurement": "residual activity", "setting": "[17]; [19]", "value": 70, "unit": "%"}]}]}
